From patent publication US5047411A, “Benzazole compounds and pharmaceutical composition comprising the same” (Fujisawa Pharmaceutical Co., Ltd., priority 1988, dated 1991) come the findings set out here.

What is called inhibition is the change of the read-out against control, counted positive when it falls. A high value points to strong suppression. The inhibition in vivo is the drop in the measured response relative to a control, in per cent. A higher inhibition in vivo goes with a strong effect.

Structures can show the parent of a compound that is named as a salt.

The target of the first assay is T1, H2-receptor (Cavia porcellus, UniProt P47747).
T1 construct: from tissue; host or cells: guinea-pig atrium (isolated atrial strip)
T1 sequence (P47747 whole entry): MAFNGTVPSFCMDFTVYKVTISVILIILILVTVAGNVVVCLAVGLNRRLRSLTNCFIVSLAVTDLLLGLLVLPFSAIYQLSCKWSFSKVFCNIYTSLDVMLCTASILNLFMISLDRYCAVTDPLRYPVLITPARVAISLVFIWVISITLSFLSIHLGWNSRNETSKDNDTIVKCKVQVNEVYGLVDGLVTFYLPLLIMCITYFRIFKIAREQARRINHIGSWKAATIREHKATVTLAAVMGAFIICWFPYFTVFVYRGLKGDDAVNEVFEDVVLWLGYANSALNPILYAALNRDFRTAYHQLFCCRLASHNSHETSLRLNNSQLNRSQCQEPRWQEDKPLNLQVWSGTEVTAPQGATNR
Kind of assay: Test B: H2-receptor antagonism in isolated guinea-pig atrium. The assay is classed as cell-based. To be noted: 0.5 h, dose 1.0 × 10^-6 g/ml, inhibition of histamine-induced increase in beating rate, 30 minutes after dosing. Here is the method: The atrial strip isolated from guinea-pig was suspended under an initial tension 0.3 to 0.6 g in an organ bath containing Tyrode solution at 30° C., aerated 95%O2 -5%CO2 gas. The beating rate and amplitude of contraction of the atrium were recorded by means of a transducer and a polygraph. Histamine ([…]) was added to the bathing fluid and the increase in beating rate after dosing was measured. Addition of test compound was made 30 minutes after washing out histamine. Inhibitory effect of test compound was calculated by comparing histamine-induced increases in beating rate before and 30 minutes after dosing with test compound.
Molecule `CNc1nc2ccc(CCc3nc4cc(OC)ccn4c3C)cc2o1` [Test Compound (k), 6-[2-(7-Methoxy-3-methylimidazo[1,2-a]pyridin-2-yl)ethyl]-2-methylaminobenzoxazole dihydrochloride] displayed an inhibition at 1 µg/mL of 92.5%.

The assay is the same for the next values; noted with them: 0.5 h, dose 3.2 × 10^-6 g/ml, inhibition of histamine-induced increase in beating rate, 30 minutes after dosing.
As for `CCNc1nc2ccc(CCc3nc4cc(C)ccn4c3C)cc2o1` [Test Compound (j), 6-[2-(3,7-Dimethylimidazo[1,2-a]pyridin-2-yl)ethyl]-2-ethylaminobenzoxazole], the inhibition at 3.2 µg/mL turned out to be 98%.
On the same count and under the same terms, to `COc1ccn2c(C)c(CCc3ccc4nc(N)oc4c3)nc2c1` [Test Compound (h), 6-[2-(7-Methoxy-3-methylimidazo[1,2-a]pyridin-2-yl)ethyl]-2-aminobenzoxazole] belongs 100%; to `Cc1ccn2c(C)c(CCc3ccc4nc(N)oc4c3)nc2c1` [Test Compound (i), 6-[2-(3,7-Dimethylimidazo[1,2-a]pyridin-2-yl)ethyl]-2-aminobenzoxazole], 93.1%.

A further assay deals with stress ulcer. The assay is described as follows: Test A: Inhibition of stress ulcer. It is filed as in vivo, male Sprague-Dawley rats. Conditions: rat, oral, given just before immobilization, ulcer area after 7 hours vs control. Here is the method:
Five male Sprague-Dawley rats, aged 7 weeks and weighing about 200 g were used per group for the study on stress ulcer after the fast for 24 hours. Each animal was immobilized in a restrain cage and immersed to a level of the xiphoid in a water bath kept 22° C. Each of the test compound suspended in 0.1% methylcellulose solution was administered orally (5 ml/kg) just before the immobilization. Seven hours later, the animals were sacrificed and their stomachs were removed. The stomach was then fixed with 2% formalin. The area of ulcers was measured for each animal, and percentage of inhibition was calculated by comparing the mean area of ulcers (mm^2) in the test animals with that in the control animals.
Take `CNc1nc2ccc(CCc3nc4cc(C)ccn4c3C)cc2o1` [Test Compound (f), 6-[2-(3,7-Dimethylimidazo[1,2-a]pyridin-2-yl)ethyl]-2-methylaminobenzoxazole]: testing at 32 mg/kg gave an inhibition in vivo of 85.1%.
Regarding `Cc1ccn2c(C)c(CCc3ccc4nc(N)sc4c3)nc2c1` [Test Compound (g), 6-[2-(3,7-Dimethylimidazo[1,2-a]pyridin-2-yl)ethyl]-2-aminobenzothiazole d ihydrochloride], the inhibition in vivo at 32 mg/kg turned out to be 85.4%.
The molecule `CCNc1nc2ccc(CCc3cn4ccc(C)cc4n3)cc2o1` [Test Compound (d)] returned an inhibition in vivo at 32 mg/kg of 84.6%.
Same read-out and setting: with `CCNc1nc2ccc(CCc3nc4cc(OC)ccn4c3C)cc2o1` [Test Compound (l), 2-Ethylamino-6-[2-(7-methoxy-3-methylimidazo[1,2-a]pyridin-2-yl)ethyl]benzoxazole dihydrochloride] the figure was 98.6%; with `Nc1nc2ccc(Cc3ccccn3)cc2s1` [Test Compound (e), 6-[(2-Pyridyl)methyl]-2-aminobenzothiazole], 98.2%; with `CCNc1nc2ccc(CCc3ccccn3)cc2s1` [Test Compound (b), 6-[2-(2-Pyridyl)ethyl]-2-ethylaminobenzothiazole], 83.9%.
On to `COc1ccn2c(C)c(CCc3ccc4nc(N)oc4c3)nc2c1` [Test Compound (h), 6-[2-(7-Methoxy-3-methylimidazo[1,2-a]pyridin-2-yl)ethyl]-2-aminobenzoxazole], for which testing at 32 mg/kg gave an inhibition in vivo of 93.4%.
Still for that read-out and setting: to `CNc1nc2ccc(Cc3ccccn3)cc2s1` [Test Compound (a), 6-[(2-Pyridyl)methyl]-2-methylaminobenzothiazole] belongs 87.8%; to `Nc1nc2ccc(CCc3ccccn3)cc2s1` [Test Compound (c), 6-[2-(2-Pyridyl)ethyl]-2-aminobenzothiazole], 88.5%.
